The values below come from patent US11439622B2 (OXFORD UNIVERSITY INNOVATION LIMITED, priority 2015, dated 2022).

Common to all, as to format: biochemical
The target in test [1] is VIM-2 (Veronese metallo-β-lactamase-2) (Escherichia coli, UniProt Q5U7L7). In words: Enzyme inhibition assay, VIM-2. The note with it: read-out: pIC50 VIM-2 (converted). As to the method: (§1) The biological activity of the compounds of the present invention was tested using standard assay protocols.^7 The following representative enzymes NDM-1 (New Delhi metallo-β-lactamase-1), IMP-1 (Imipenemase-1) and VIM-2 (Veronese metallo-β-lactamase-2) were selected from different clinically relevant B1 metallo-β-lactamases.

Test [2] has as its target NDM-1 (New Delhi metallo-β-lactamase-1) (Klebsiella pneumoniae, UniProt C7C422). Nature of the test: Enzyme inhibition assay, NDM-1. The note with it: read-out: pIC50 NDM-1 (converted). As to the method: as §1
The target in test [3] is IMP-1 (Imipenemase-1) (Serratia marcescens, UniProt P52699). Nature of the test: Enzyme inhibition assay, IMP-1. To be noted: read-out: pIC50 IMP-1 (converted). As to the method: as §1
Sequence of IMP-1 (Imipenemase-1) (P52699 19-246, looked up, species assumed): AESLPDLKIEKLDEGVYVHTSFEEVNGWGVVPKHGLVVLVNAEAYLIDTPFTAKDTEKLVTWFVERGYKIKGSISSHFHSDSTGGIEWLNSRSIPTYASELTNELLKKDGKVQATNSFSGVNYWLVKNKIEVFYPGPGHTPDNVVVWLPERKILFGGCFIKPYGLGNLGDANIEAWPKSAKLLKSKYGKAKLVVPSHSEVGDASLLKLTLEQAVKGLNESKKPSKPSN

Sequence of NDM-1 (New Delhi metallo-β-lactamase-1) (C7C422 29-270, looked up, species assumed): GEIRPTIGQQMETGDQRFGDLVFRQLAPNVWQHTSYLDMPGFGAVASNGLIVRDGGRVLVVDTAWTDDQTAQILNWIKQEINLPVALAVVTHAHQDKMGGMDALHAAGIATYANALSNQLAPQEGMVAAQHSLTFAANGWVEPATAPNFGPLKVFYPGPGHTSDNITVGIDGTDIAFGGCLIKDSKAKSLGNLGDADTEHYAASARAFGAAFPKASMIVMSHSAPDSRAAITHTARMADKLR

With `Cc1cccc2c(-c3ccc(OC(F)(F)F)cc3)c(C(=O)O)[nH]c12` [Example 2, 7-methyl-3-(4-(trifluoromethoxy)phenyl)-1H-indole-2-carboxylic acid], the IC50 in test [1] is 398 nM; in test [2], 50.1 nM; in test [3], 7.94 µM.

`Cc1cccc2c(-c3cc(Cl)cc(Cl)c3)c(C(=O)O)[nH]c12` [Example 3, 3-(3,5-dichlorophenyl)-7-methyl-1H-indole-2-carboxylicacid]: the IC50 is < 5.01 nM in test [1], 39.8 nM in test [2] and 5.01 µM in test [3].

As for `Cc1cccc2c(-c3ccncc3)c(C(=O)O)[nH]c12` [Example 4, 7-methyl-3-(pyridin-4-yl)-1H-indole-2-carboxylic acid], the IC50 in test [1] was 631 nM; in test [2] it was 63.1 nM; in test [3], 12.6 µM.

Consider `Cc1cccc2c(-c3ccc(C(N)=O)cc3)c(C(=O)O)[nH]c12` [Example 5, 3-(4-carbamoylphenyl)-7-methyl-1H-indole-2-carboxylic acid], for which the IC50 was 100 nM in test [1], 31.6 nM in test [2] and 7.94 µM in test [3].

Consider `Cc1cccc2c(-c3ccc(C#N)cc3)c(C(=O)O)[nH]c12` [Example 7, 3-(4-cyanophenyl)-7-methyl-1H-indole-2-carboxylic acid], for which the IC50 in test [1] was 200 nM; in test [2], 39.8 nM; in test [3] it was 7.94 µM.

Consider `Cc1cccc2c(-c3ccc([N+](=O)[O-])cc3)c(C(=O)O)[nH]c12` [Example 8, 7-methyl-3-(4-nitrophenyl)-1H-indole-2-carboxylic acid], for which the values for the IC50 in test [1], in test [2] and in test [3] were 251 nM, 79.4 nM and 25.1 µM, respectively.

With `COc1ccc(-c2c(C(=O)O)[nH]c3c(C)cccc23)cc1` [Example 9, 3-(4-methoxyphenyl)-7-methyl-1H-indole-2-carboxylic acid], the IC50 in test [1] is 251 nM; in test [2] it was 50.1 nM; in test [3], 7.94 µM.

`Cc1cccc2c(-c3ccc(Br)cc3)c(C(=O)O)[nH]c12` [Example 10, 3-(4-bromophenyl)-7-methyl-1H-indole-2-carboxylic acid]: the IC50 in test [1] was 200 nM; in test [2], 25.1 nM; in test [3], 7.94 µM.

As for `Cc1cccc2c(-c3ccc(C(F)(F)F)cc3)c(C(=O)O)[nH]c12` [Example 11, 7-methyl-3-(4-(trifluoromethyl)phenyl)-1H-indole-2-carboxylic acid], the values for the IC50 in test [1], in test [2] and in test [3] were 316 nM, 31.6 nM and 12.6 µM, respectively.

For `Cc1cccc2c(-c3ccc(N4CCOCC4)cc3)c(C(=O)O)[nH]c12` [Example 13, 7-methyl-3-(4-morpholinophenyl)-1H-indole-2-carboxylic acid], the IC50 in test [1] was 1580 nM; in test [2], 12.6 nM; in test [3] it was 10 µM.

With `Cc1cccc2c(-c3cccc(S(N)(=O)=O)c3)c(C(=O)O)[nH]c12` [Example 14, 7-methyl-3-(3-sulfamoylphenyl)-1H-indole-2-carboxylic acid], the figures for the IC50 in test [1] and in test [2] were 794 nM and 50.1 nM, respectively.

Take `Cc1cccc2c(-c3cccc([N+](=O)[O-])c3)c(C(=O)O)[nH]c12` [Example 15, 7-methyl-3-(3-nitrophenyl)-1H-indole-2-carboxylic acid]: the IC50 in test [1] is 126 nM; in test [2], 25.1 nM; in test [3], 15.8 µM.

Consider `Cc1cccc2c(-c3cccc(S(C)(=O)=O)c3)c(C(=O)O)[nH]c12` [Example 16, 7-methyl-3-(3-(methylsulfonyl)phenyl)-1H-indole-2-carboxylic acid], for which the results for the IC50 in test [1], in test [2] and in test [3] were 794 nM, 50.1 nM and 12.6 µM, respectively.

`Cc1cccc2c(-c3cccc(N(C)C)c3)c(C(=O)O)[nH]c12` [Example 17, 3-(3-(dimethylamino)phenyl)-7-methyl-1H-indole-2-carboxylic acid]: the IC50 was 501 nM in test [1], 200 nM in test [2] and > 100 µM in test [3].

On to `Cc1cccc2c(-c3cccc(Br)c3)c(C(=O)O)[nH]c12` [Example 18, 3-(3-bromophenyl)-7-methyl-1H-indole-2-carboxylic acid], for which the IC50 in test [1] is 50.1 nM; in test [2], 20 nM; in test [3] it was 2 µM.

As to `Cc1cccc2c(-c3ccc4[nH]ncc4c3)c(C(=O)O)[nH]c12` [Example 19, 3-(1H-indazol-5-yl)-7-methyl-1H-indole-2-carboxylic acid], the IC50 in test [1] is 100 nM; in test [2] it was 31.6 nM; in test [3], 5.01 µM.

In the case of `COc1ccccc1-c1c(C(=O)O)[nH]c2c(C)cccc12` [Example 20, 3-(2-methoxyphenyl)-7-methyl-1H-indole-2-carboxylic acid], the IC50 in test [1] was 200 nM; in test [2] it was 126 nM; in test [3], 79.4 µM.

As for `Cc1cccc2c(-c3ccn4ncnc4c3)c(C(=O)O)[nH]c12` [Example 21, 3-([1,2,4]triazolo[1,5-a]pyridin-7-yl)-7-methyl-1H-indole-2-carboxylic acid], the IC50 in test [1] was 126 nM; in test [2], 126 nM; in test [3] it was > 100 µM.

As for `Cc1cccc2c(-c3cncnc3)c(C(=O)O)[nH]c12` [Example 22, 7-methyl-3-(pyrimidin-5-yl)-1H-indole-2-carboxylic acid], the IC50 in test [1] is 1260 nM; in test [2], 126 nM; in test [3], > 100 µM.

Take `Cc1cccc2c(-c3ccc(N)cc3)c(C(=O)O)[nH]c12` [Example 23, 3-(4-aminophenyl)-7-methyl-1H-indole-2-carboxylic acid]: the IC50 in test [1] is 1000 nM; in test [2] it was 31.6 nM; in test [3] it was 7.94 µM.

For the molecule `Cc1cccc2c(-c3cccnc3)c(C(=O)O)[nH]c12` [Example 24, 7-methyl-3-(pyridin-3-yl)-1H-indole-2-carboxylic acid], the values for the IC50 in test [1], in test [2] and in test [3] were 631 nM, 100 nM and 12.6 µM, respectively.

For `Cc1cc(C)cc(-c2c(C(=O)O)[nH]c3c(C)cccc23)c1` [Example 38, 3-(3,5-dimethylphenyl)-7-methyl-1H-indole-2-carboxylic acid], the IC50 in test [1] is 158 nM; in test [2], 39.8 nM.

Take `Cc1cccc2c(-c3ccccc3Cl)c(C(=O)O)[nH]c12` [Example 39, 3-(2-chlorophenyl)-7-methyl-1H-indole-2-carboxylic acid]: the IC50 in test [1] and in test [2] was 126 nM throughout.

Take `CC(C)c1cccc2c(-c3ccc(S(=O)(=O)N4CCOCC4)cc3)c(C(=O)O)[nH]c12` [Example 95, 7-isopropyl-3-(4-(morpholinosulfonyl)phenyl)-1H-indole-2-carboxylicacid]: the IC50 is 2.69 nM in test [2] and 0.024 µM in test [3].

On to `CC(C)c1cccc2c(-c3ccc(CNS(C)(=O)=O)cc3)c(C(=O)O)[nH]c12` [Example 96, 7-isopropyl-3-(4-(methylsulfonamidomethyl)phenyl)-1H-indole-2-carboxylic acid], for which the figures for the IC50 in test [2] and in test [3] were 3.98 nM and 0.00776 µM, respectively.

Turning to `CC(C)c1cccc2c(-c3ccc(CN(C)C)cc3)c(C(=O)O)[nH]c12` [Example 97, 3-(4-((dimethylamino)methyl)phenyl)-7-isopropyl-1H-indole-2-carboxylicacid], the values for the IC50 in test [2] and in test [3] were 10 nM and 0.437 µM, respectively.

On to `CC(C)c1cccc2c(-c3ccc(N4CCOCC4)nc3)c(C(=O)O)[nH]c12` [Example 98, 7-isopropyl-3-(6-morpholinopyridin-3-yl)-1H-indole-2-carboxylic acid], for which the figures for the IC50 in test [2] and in test [3] were 6.76 nM and 0.219 µM, respectively.

For `CC(C)c1cccc2c(-c3ccc(S(=O)(=O)N4CCCC4)cc3)c(C(=O)O)[nH]c12` [Example 99, 7-isopropyl-3-(4-(pyrrolidin-1-ylsulfonyl)phenyl)-1H-indole-2-carboxylic acid], the IC50 is 0.851 nM in test [2] and 0.00832 µM in test [3].

For the molecule `CC(C)c1cccc2c(-c3ccc(Cn4cnnn4)cc3)c(C(=O)O)[nH]c12` [Example 100, 3-(4-((1H-tetrazol-1-yl)methyl)phenyl)-7-isopropyl-1H-indole-2-carboxylic acid], the figures for the IC50 in test [2] and in test [3] were 15.8 nM and 0.0224 µM, respectively.

With `CC(C)c1cccc2c(-c3ccc(C(=O)N(C)C)cc3Cl)c(C(=O)O)[nH]c12` [Example 101, 3-(2-chloro-4-(dimethylcarbamoyl)phenyl)-7-isopropyl-1H-indole-2-carboxylic acid], the figures for the IC50 in test [2] and in test [3] were 15.8 nM and 1.55 µM, respectively.

Consider `O=C(O)c1[nH]c2c(F)cccc2c1-c1ccc(F)cc1` [Example 112, 7-fluoro-3-(4-fluorophenyl)-1H-indole-2-carboxylic acid], for which the values for the IC50 in test [1] and in test [2] were 7940 nM and 1580 nM, respectively.

On to `Cc1cccc2c(C3CCNCC3)c(C(=O)O)[nH]c12` [Example 118, 7-methyl-3-(piperidin-4-yl)-1H-indole-2-carboxylic acid], for which the IC50 was 15800 nM in test [2] and > 100 µM in test [3].

As for `Cc1ccc2[nH]c(C(=O)O)c(-c3ccc(F)cc3)c2c1` [Example 121, 3-(4-fluorophenyl)-5-methyl-1H-indole-2-carboxylic acid], the results for the IC50 in test [1] and in test [2] were 39800 nM and 6310 nM, respectively.

For the molecule `CNC(=O)c1[nH]c2c(C(C)C)cccc2c1-c1ccc(S(=O)(=O)N(C)C)cc1` [Example 122, 3-(4-(N,N-dimethylsulfamoyl)phenyl)-7-isopropyl-N-methyl-1H-indole-2-carboxamide], the results for the IC50 in test [1] and in test [3] were > 20000 nM and > 20 µM, respectively.
